Tests used:
[1] = test system: monoclonal 6E10 antibody (mAb); experiment: Quantitative detection of Aβ42 with mAb-immobilized slit cantilever (resonant frequency shift); type: binding; conditions: for frequency shift (average): in 10 mM PBS, 30 min, rinsed with PBS, mAb 10 μg/mL immobilized
Method: To detect the target molecules, a commercial monoclonal 6E10 antibody (mAb, 10 μg/mL, Covance, Princeton, NJ, USA) was immobilized on the cantilever surfaces by using a conventional coupling method. The mAb is known to include a specific binding ligand with the first 1–16 sequence of human Aβ peptides. Prior to antibody immobilization, the slit cantilever with a 50 nm thick Au surface was cleaned with piranha solution (a 4:1 ratio of H2SO4 to H2O2) and rinsed with deionized water (DI). In addition, 10 mM of 11-Mercaptoundecanoic acid (11-MUC, Sigma-Aldrich, St. Louis, MO, USA) diluted in ethanol was treated for 12 h on the Au surface of the sensor to establish a self-assembled monolayer. The MUC-modified slit cantilever was immersed in a mixture of 1-ethyl-3-(3-dimethylaminopropyl) carbodiimide (EDC, 80 mM, Sigma-Aldrich) and N-hydroxysuccinimide (NHS, 20 mM, Sigma-Aldrich) dissolved for 2 h in 10 mM of phosphate-buffered solution (PBS, pH = 7.4). Then, mAb, which was diluted as 10 µg/mL in 10 mM PBS, was immobilized on the functionalized surface of the slit cantilever for 2 h, followed by rinsing with PBS and DI.
To evaluate the sensing performance of the slit cantilever in a liquid environment, quantification of the synthetic Aβ42 peptide, which has an identical sequence of 42-residue amino acids associated with human AD, was investigated in a physiological-level concentration. Prior to conducting biomolecular interactions, a drift of resonant frequency was verified and stabilized until steady state (Figure S2). The resonance responses reached its steady state within 200 min and the frequency maintained for 60 min with fluctuations up to 4 Hz which can be regarded as a noise level. Detection of target molecules with the slit cantilever is based on the capturing by immobilized mAb on the cantilever beam. It occurs in the measurement of the frequency shift due to mass loading on the surface. Firstly, the specific antibody (mAb) of 10 μg/mL was chemically immobilized on the 60 μm × 280 μm dimension of the Au surface (50 nm thickness) of the slit cantilever. The Aβ42 peptide was diluted with a ten-fold difference from 10 pg/mL to 1 μg/mL in 10 mM PBS. The prepared Aβ42 solution was individually introduced into the slit cantilever for 30 min, followed by rinsing with PBS. The changes of resonant frequencies in PBS were measured before and after the recognition interactions between mAb and target analytes. The resonant frequency decreased according to the concentration increment of target analytes owing to mass adsorption of Aβ42 to the specific binding site of the immobilized mAb. The average values of the frequency shifts were measured as −15.5, −56.5, −119.5, −472.5, −774 and −799 Hz for the concentrations from 10 pg/mL to 1 μg/mL, respectively. As noted earlier, these responses were satisfied with at least three-sigma significance in terms of the signal-to-noise ratio of the sensors.

[2] = molecular target: Aβ peptides; conditions: conventional surface plasmon resonance (SPR), ref [27]; cited from earlier work
Method: Meanwhile, Equation (5) predicts the hyperbolic plot of fractional saturation ([AB]/[B]) vs. Aβ concentration. This curve follows isotherms for relatively obscure thermodynamic reasons. […] The acquired value is consistent with those of previous studies (1.2 nM) using conventional surface ...

[3] = molecular target: monoclonal 6E10 antibody (mAb); experiment: Binding affinity (KD) of Aβ42-mAb by Langmuir isotherm fit of slit cantilever responses; conditions: global fit of Langmuir isotherm (χ^2 = 0.010958), 1:1 binding; fractional saturation vs. Aβ concentration; 1 μg/mL assumed fully saturated; PBS; read-out: equilibrium dissociation constant (KD)
Method: To detect the target molecules, a commercial monoclonal 6E10 antibody (mAb, 10 μg/mL, Covance, Princeton, NJ, USA) was immobilized on the cantilever surfaces by using a conventional coupling method. The mAb is known to include a specific binding ligand with the first 1–16 sequence of human Aβ peptides. Prior to antibody immobilization, the slit cantilever with a 50 nm thick Au surface was cleaned with piranha solution (a 4:1 ratio of H2SO4 to H2O2) and rinsed with deionized water (DI). In addition, 10 mM of 11-Mercaptoundecanoic acid (11-MUC, Sigma-Aldrich, St. Louis, MO, USA) diluted in ethanol was treated for 12 h on the Au surface of the sensor to establish a self-assembled monolayer. […]
To evaluate the sensing performance of the slit cantilever in a liquid environment, quantification of the synthetic Aβ42 peptide, which has an identical sequence of 42-residue amino acids associated with human AD, was investigated in a physiological-level concentration. […] The changes of resonant frequencies in PBS were measured before and after the recognition interactions between mAb and target analytes. […] The average values of the frequency shifts were measured as −15.5, −56.5, −119.5, −472.5, −774 and −799 Hz for the concentrations from 10 pg/mL to 1 μg/mL, respectively. […]

| Substance | resonant frequency response, negative control ([1]; PSA protein as control experiment, mAb-immobilized cantilever) | Kd [2] | frequency shift (average) ([1]; 10 pg/mL Aβ42) | frequency shift (average) ([1]; 100 pg/mL Aβ42 (ten-fold dilution series 10 pg/mL to 1 μg/mL)) | frequency shift (average) ([1]; 1 ng/mL Aβ42 (ten-fold dilution series 10 pg/mL to 1 μg/mL)) | frequency shift (average) ([1]; 10 ng/mL Aβ42 (ten-fold dilution series 10 pg/mL to 1 μg/mL)) | frequency shift (average) ([1]; 100 ng/mL Aβ42 (ten-fold dilution series 10 pg/mL to 1 μg/mL)) | frequency shift (average) ([1]; 1 μg/mL Aβ42) | sensitivity ([1]; dynamic range 100 pg/mL to 100 ng/mL Aβ42, logarithmic concentration) | Kd [3] |
| --- | --- | --- | --- | --- | --- | --- | --- | --- | --- | --- |
| PSA: prostate cancer antigen (PSA) protein introduced as a control experiment | no obvious responses were observed | – | – | – | – | – | – | – | – | – |
| Aβ42: synthetic Aβ42 peptide, which has an identical sequence of 42-residue amino acids associated with human AD (Sigma-Aldrich) | – | 1.2 nM | −15.5 Hz | −56.5 Hz | −119.5 Hz | −472.5 Hz | −774 Hz | −799 Hz | 330 Hz/decade | 1.75 nM |

— publication PMC5579575, “Study of Alzheimer’s Disease-Related Biophysical Kinetics with a Microslit-Embedded Cantilever Sensor in a Liquid Environment” (Sensors (Basel, Switzerland), 2017)
